Patent US12680074B2, “Antigen presenting T cells, sensitized, manufactured T cells and methods of treatment using the same” (RAPA THERAPEUTICS, LLC, priority 2020, dated 2026)

B1: daclizumab: anti-IL-2 receptor monoclonal antibody (antibody, chains of the INN, looked up, V domains shown)
VH: QVQLVQSGAEVKKPGSSVKVSCKASGYTFTSYRMHWVRQAPGQGLEWIGYINPSTGYTEYNQKFKDKATITADESTNTAYMELSSLRSEDTAVYYCARGGGVFDYWGQGTLVTVSS
VL: DIQMTQSPSTLSASVGDRVTITCSASSSISYMHWYQQKPGKAPKLLIYTTSNLASGVPARFSGSGSGTEFTLTISSLQPDDFATYYCHQRSTYPLTFGQGTKVEVK

What was measured:
[1] = tested on: pancreatic cancer cell line MIA PaCa-2 and lung cancer cell line H23; assay: Example 9 sensitization of manufactured T cells by lysate of etoposide-treated tumor cells, cytokine re-stimulation read-out (FIG. 37); type: cell-based, human
Method: Manufactured T cells for this and all of the following examples were produced by the following procedure: peripheral blood apheresis PBMC product was subjected to Ficoll gradient centrifugation and the resultant cells were plated at 15×10^6 cells/mL; at culture initiation, temsirolimus was added at a final concentration of 2 μM and basiliximab was added at a final concentration of 30 μg/mL; after 24 hours of culture, IFN-α was added to achieve a final concentration of 20,000 IU/mL; no other cytokines were added; no co-stimulation was provided; the manufactured T cells were harvested on day 6 of culture for further use.
The pancreatic cancer cell line MIA PaCa-2 and the lung cancer cell line H23 were treated for 72-hours with etoposide, an inducer of immunogenic cell death, at concentrations of 0.5, 5.0 and 50 μM. Briefly, a cell concentration of 5×10^6 tumor cells/mL was utilized to generate 100 μL of lysate, which was then used to directly stimulate manufactured T cells. That is, there was no separate T cell APC manufacturing step used for this experiment (lysate added directly to effector T cells). The tumor cell lysate was then added to manufactured T cells which were expanded in X-Vivo 20 media containing IL-2 (100 IU/mL), IL-7 (10 ng/mL), and IL-15 (10 ng/mL).

phospho-RAPTOR = assay: Western blot of phospho-RAPTOR after 16-hr pre-incubation (FIG. 12); type: cell-based, human; conditions: high-dose temsirolimus compared to low-dose temsirolimus or high-dose rapamycin
Method: (§1) For FIGS. 11-13, human CD4^+ and CD8^+ T cells were cultured using a 16-hr pre-incubation interval prior to the addition of 3/28 beads at the reduced ratio of 1:3 beads-to-T cells. As indicated in FIGS. 11-13, the various T cell cultures received different methods of mTOR inhibition (rapamycin at 1.0 μM; temsirolimus at 1.0 or 0.1 μM), different conditions of exogenous IL-2 addition, and different conditions relative to addition of the anti-IL-2 receptor monoclonal antibody, daclizumab. After the 16-hr pre-incubation interval, cells were harvested from the T cell cultures, protein was isolated, and p62 (FIG. 11), phospho-RAPTOR (FIG. 12), or BIM (FIG. 13) and the housekeeper gene β-actin were quantified by western blot.

FoxP3 = assay: Intra-cellular FoxP3 expression at day 6 of ex vivo T cell culture (FIG. 1A); type: cell-based
Method: (§2) T cells were cultured ex vivo, as indicated, using various ratios of anti-CD3, anti-CD28 beads to T cells (1:1 or 1:12); the mTOR inhibitor temsirolimus (1 μM); without or with the anti-IL-2 receptor monoclonal antibody daclizumab (5 or 50 μg/ml); and either Th1 polarization cytokines (IFN-alpha; 10,000 IU/ml) or control regulatory T cell polarization (IL-2 plus TGF-β). At day 6 of culture, the T cells were evaluated for intra-cellular expression of the regulatory T cell transcription factor FoxP3 and the Th1 transcription factor TBET. (FIGS. 1A-1B).

TBET = assay: Intra-cellular TBET expression at day 6 of ex vivo T cell culture (FIG. 1B); type: cell-based
Method: as §2

[2] = tested on: IFN-γ and TNF-α secretion by CD4+ and CD8+ T cells; assay: Day 6 / day 13 cytokine secretion after 3:1 3/28 bead co-stimulation, Luminex (FIGS. 3A-3B); type: cell-based
Method: To evaluate this, we tested cytokine secretion potential of the manufactured T cells at the end of cell culture (day 6) and then again one week after ex vivo expansion after maximal co-stimulation (3/28 bead-to-T cell ratio, 3:1) and propagation in media devoid of any inhibitors. In FIGS. 3A-3B, CD4^+ and CD8^+ T cells were purified and cultured for 6-days either with or without a 16-hr interval of pre-incubation prior to co-stimulation (1:1 ratio of 3/28 beads-to-T cells). As indicated, temsirolimus was added at concentrations of either 1.0 or 0.1 μM; all cultures were supplemented with IFN-α (10,000 IU/ml) and daclizumab (50 μg/ml). On day 6 of culture, the resultant T cells were co-stimulated for 24 hr using a 3:1 ratio of 3/28 beads; the supernatant was tested for cytokine content by Luminex assay (results are described as pg per ml of cytokine secreted per million cells per 24 hr). […] N.A, abbreviation indicates not applicable (insufficient T cell yield to perform assay).

p62 = assay: Western blot of p62 after 16-hr pre-incubation (FIG. 11); type: cell-based, human
Method: as §1

[3] = temsirolimus plus daclizumab under TREG-permissive conditions: bead ratio 1:12, no IFN-α, exogenous IL-2 plus TGF-β

Molecule | sensitizing manufactured T cells to cytokine secretion in response to repeat exposure to lysate ([1]; 72-hour incubation of MIA PaCa-2 or H23 with etoposide 0.5 to 5.0 μM) | T cell sensitization ([1]; etoposide at the higher concentration of 50 μM) | phosphorylated form of RAPTOR (phospho-RAPTOR) | FoxP3 expression (FoxP3; exogenous IL-2 added in combination with IFN-α) | T cell expression of FoxP3 (FoxP3; temsirolimus 1.0 μM with IFN-α, relative to day 0 input T cell population) | FoxP3 expression (FoxP3; [3]) | expression of TBET (TBET; combination of temsirolimus and an anti-IL-2 receptor monoclonal antibody) | day 13 T cell IFN-γ and TNF-α secretion ([2]; pre-incubation plus high-dose temsirolimus, after one week without inhibitors) | day 6 T cell cytokine secretion potential ([2]; temsirolimus 0.1 μM) | day 6 T cell IFN-γ and TNF-α secretion after 24 hr of maximal co-stimulation ([2]; temsirolimus 1.0 μM, with or without overnight pre-incubation) | autophagy marker p62 (p62; pre-incubation, 1:3 beads, daclizumab, rapamycin 1 μM or temsirolimus 1.0 or 0.1 μM) | FoxP3 expression, dose-response (FoxP3; antibody at 50 μg/ml versus 5 μg/ml) | FoxP3 expression (FoxP3; blockade of the IL-2 receptor added to temsirolimus and IFN-α) | TBET expression, dose response (TBET; 50 μg/ml versus 5 μg/ml) | autophagy marker p62 (p62; IL-2 receptor blockade eliminated from the regimen)
COc1cc([C@@H]2c3cc4c(cc3[C@@H](O[C@@H]3O[C@@H]5CO[C@@H](C)O[C@H]5[C@H](O)[C@H]3O)[C@H]3COC(=O)[C@H]23)OCO4)cc(OC)c1O [etoposide] | effective | not effective |  |  |  |  |  |  |  |  |  |  |  |  | 
CO[C@H]1C[C@@H]2CC[C@@H](C)[C@@](O)(O2)C(=O)C(=O)N2CCCC[C@H]2C(=O)O[C@H]([C@H](C)C[C@@H]2CC[C@@H](OC(=O)C(C)(CO)CO)[C@H](OC)C2)CC(=O)[C@H](C)/C=C(\C)[C@@H](O)[C@@H](OC)C(=O)[C@H](C)C[C@H](C)/C=C/C=C/C=C/1C [temsirolimus] |  |  | lower levels of phospho-RAPTOR | not effective | reduced | not effective | increased expression of TBET | highest | only partially reduced | very low levels | autophagy could be realized |  |  |  | 
B1 |  |  |  |  |  | not effective |  |  |  |  |  | more effective | further reduced | higher degree | substantially blunted the induction of autophagy
